In patent US12240862B2, “Inhibitors of peptidylarginine deiminases” (Gilead Sciences, Inc., priority 2020, dated 2025):

target: T1, human PAD4 (Homo sapiens, UniProt Q9UM07); assay: In vitro PAD4 BAEE biochemical assay; settings: human PAD4, BAEE substrate; 5 nM PAD4, 2 mM calcium chloride, 3 mM BAEE; geometric mean of multiple experiments
T1 construct: human PAD4 (NM_012387), A2P663, was PCR amplified; His-SUMO (N, cleaved yes); made in house; host or cells: E. coli BL21(DE3)
Outline: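 Ammonia generated from BAEE serves as the readout, measured by o-phthalaldehyde after EDTA termination. Final conditions: 5 nM human PAD4 (SUMO tag cleaved), 2 mM CaCl2, 3 mM BAEE, pH 7.6 MOPS buffer, 25 °C for 2 h following a 30-min compound preincubation.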

T1 sequence (Q9UM07 2-663): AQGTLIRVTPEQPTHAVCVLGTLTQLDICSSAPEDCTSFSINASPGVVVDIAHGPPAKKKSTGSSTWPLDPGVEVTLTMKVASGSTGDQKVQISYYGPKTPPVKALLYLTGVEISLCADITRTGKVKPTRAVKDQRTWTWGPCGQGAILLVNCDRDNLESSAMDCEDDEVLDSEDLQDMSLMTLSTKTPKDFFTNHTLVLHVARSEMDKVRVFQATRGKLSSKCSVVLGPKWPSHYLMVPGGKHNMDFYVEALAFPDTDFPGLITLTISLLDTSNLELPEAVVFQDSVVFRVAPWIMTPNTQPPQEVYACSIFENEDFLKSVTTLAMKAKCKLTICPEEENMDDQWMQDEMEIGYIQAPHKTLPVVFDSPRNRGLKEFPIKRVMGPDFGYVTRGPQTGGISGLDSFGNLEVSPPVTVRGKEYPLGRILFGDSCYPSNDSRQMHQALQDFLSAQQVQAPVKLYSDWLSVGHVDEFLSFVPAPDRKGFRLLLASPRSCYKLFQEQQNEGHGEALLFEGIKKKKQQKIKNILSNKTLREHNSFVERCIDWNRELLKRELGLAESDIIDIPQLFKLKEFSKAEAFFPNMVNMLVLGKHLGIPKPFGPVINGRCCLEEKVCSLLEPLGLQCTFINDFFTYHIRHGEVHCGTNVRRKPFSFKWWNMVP

Row | IC50 | SMILES
1 | 69.8 nM | COc1cc(C(=O)N2[C@H]3CC[C@@H]2[C@H](N)C3)cc2nc(-c3cc4ccc([C@@H](C)NC(=O)CC5(OC)CC5)nc4n3CC3CC3)c(C)n12 [Example 33, ~{N}-[(1~{R})-1-[2-[7-[(1~{R},2~{R}, 4~{S})-2-amino-7-azabicyclo[2.2.1]heptane-7-carbonyl]-5-methoxy-3-methylimidazo [1,2-a]pyridin-2-yl]-1-(cyclopropylmethyl)pyrrolo[2,3-b]pyridin-6-yl]ethyl]-2-(1-methoxycyclopropyl) acetamide]
2 | 44.2 nM | COc1cc(C(=O)N2[C@H]3CC[C@@H]2[C@H](N)C3)cc2nc(-c3cc4ccc([C@@H](C)NC(=O)C5(O)CCCC5)nc4n3CC3CC3)c(C)n12 [Example 88, ~{N}-[(1~{R})-1-[2-[7-[(1~{R},2~{R},4~{S})-2-amino-7-azabicyclo[2.2.1]heptane-7-carbonyl]-5-methoxy-3-methylimidazo [1,2-a]pyridin-2-yl]-1-(cyclopropylmethyl)pyrrolo [2,3-b]pyridin-6-yl]ethyl]-1-hydroxycyclopentane-1-carboxamide]
3 | 16200 nM | COc1cc(C(=O)N[C@@H]2CNCC[C@H]2C)cc2nc(-c3cc4ccc(N(C(F)F)S(C)(=O)=O)nc4n3CC3CC3)c(C)n12 [Example 281, 2-[1-(cyclopropylmethyl)-6-[difluoromethyl (methylsulfonyl)amino]pyrrolo[2,3-b]pyridin-2-yl]-5-methoxy-3-methyl-~{N}-[(3~{S},4~{R})-4-methylpiperidin-3-yl] imidazo[1,2-a]pyridine-7-carboxamide]
4 | 134 nM | COc1cc(C(=O)N2[C@H]3CC[C@@H]2[C@H](N)C3)cc2nc(-c3cc4ccc([C@@H](C)Nc5ncc(F)cn5)nc4n3CC3CC3)c(C)n12 [Example 264, [(1~{R},2~{R},4~{S})-2-amino-7-azabicyclo [2.2.1]heptan-7-yl]-[2-[1-(cyclopropylmethyl)-6-[(1~{R})-1-[(5-fluoropyrimidin-2-yl)amino]ethyl]pyrrolo[2,3-b]pyridin-2-yl]-5-methoxy-3-methylimidazo[1,2-a]pyridin-7-yl]methanone]
5 | 34.7 nM | COc1cc(C(=O)N2[C@H]3CC[C@@H]2[C@H](N)C3)cc2nc(-c3cc4ccc([C@@H](C)N5CCN(C)C5=O)nc4n3CC3CC3)c(C)n12 [Example 270, 1-[(1~{R})-1-[2-[7-[(1~{R},2~{R},4~{S})-2-amino-7-azabicyclo[2.2.1]heptane-7-carbonyl]-5-methoxy-3-methylimidazo [1,2-a]pyridin-2-yl]-1-(cyclopropylmethyl)pyrrolo [2,3-b]pyridin-6-yl]ethyl]-3-methylimidazolidin-2-one]
6 | 254 nM | COc1cc(C(=O)N2[C@H]3CC[C@@H]2[C@H](N)C3)cc2nc(-c3cc4ccc([C@@H](C)NC(=O)c5ccc(F)cc5F)nc4n3CC3CC3)c(C)n12 [Example 56, ~{N}-[(1~{R})-1-[2-[7-[(1~{R},2~{R}, 4~{S})-2-amino-7-azabicyclo[2.2.1]heptane-7-carbonyl]-5-methoxy-3-methylimidazo[1,2-a]pyridin-2-yl]-1-(cyclopropylmethyl)pyrrolo[2,3-b]pyridin-6-yl]ethyl]-2,4-difluorobenzamide]
7 | 76.2 nM | COc1cc(C(=O)N2CCC[C@@H](N)C2)cc2nc(-c3cc4ccc([C@@H](C)NC(=O)C(C)(C)O)nc4n3CC3CC3)c(C)n12 [Example 127, ~{N}-[(1~{R})-1-[2-[7-[(3~{R})-3-aminopiperidine-1-carbonyl]-5-methoxy-3-methylimidazo [1,2-a]pyridin-2-yl]-1-(cyclopropylmethyl)pyrrolo [2,3-b]pyridin-6-yl]ethyl]-2-hydroxy-2-methylpropanamide]
8 | 56.3 nM | COc1cc(C(=O)N2CCC[C@@H](N)C2)cc2nc(-c3cc4ccc([C@@H](C)NC(=O)C5(CO)CC5)nc4n3CC3CC3)c(C)n12 [Example 129, ~{N}-[(1~{R})-1-[2-[7-[(3~{R})-3-aminopiperidine-1-carbonyl]-5-methoxy-3-methylimidazo [1,2-a]pyridin-2-yl]-1-(cyclopropylmethyl)pyrrolo [2,3-b]pyridin-6-yl]ethyl]-1-(hydroxymethyl) cyclopropane-1-carboxamide]
